Measurements published in the METLIN SMRT retention time set (Domingo-Almenara et al. 2019).

Assay: gradient 5% acetonitrile 3 min, to 50% in 2 min, to 85% in 15 min, held 3 min, 100 µL/min
Settings: column: Zorbax Extend-C18 2.1 x 50 mm; eluents: water / acetonitrile, 0.1% formic acid
Procedure, shortened: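 Pure standards were analyzed in mixtures of ~100 molecules using HPLC coupled to a quadrupole time-of-flight mass spectrometer, in both positive and negative ionization mode. Separation used a Zorbax Extend-C18 column (2.1 × 50 mm, 1.8 μm) at 100 μL/min, with water and acetonitrile each containing 0.1% formic acid. Dead and dwell volumes were 40 μL and 900 μL, and data were collected over 3 months. Retention time was read from computationally picked adduct peaks, each inspected manually.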

Row | Compound | RP-LC retention time [s]
1 | C=CCOc1ccnc(-c2ccccc2)n1 | 1110
2 | COc1cccc(S(=O)(=O)N2C[C@@H](F)C[C@H]2C(=O)N2CCc3ccccc3C2)c1 | 904
3 | CCCCCC(=O)C(=O)c1ccc(O)cc1O | 819
4 | O=C(Nc1ccc2c(c1)OCCO2)C1CCCN(S(=O)(=O)c2c[nH]c(C(=O)N3CCCC3)c2)C1 (centres undefined) | 756
5 | CCC(=O)N1CCC(c2noc(CO)n2)C1 (centres undefined) | 545
6 | COc1ccccc1N1CCN(c2cc(SCC(=O)Nc3ccccc3Cl)ncn2)CC1 | 1110
7 | CCC(C)NC(=O)c1ccc2ncnc(N3CCCCC3)c2c1 (centres undefined) | 618
8 | CC(C)C(=O)Nc1c(C(=O)N2CCN(c3ccccn3)CC2)oc2ccccc12 | 649
9 | O=C(Cn1cccc1-c1nc(-c2ccc3c(c2)OCO3)no1)Nc1cc(F)cc(F)c1 | 1060
10 | O=C(Cn1nc2c3cc(F)ccc3ncn2c1=O)Nc1ccccc1F | 656
11 | CNC(=O)c1sc2nc(-c3cccc(OC)c3)c(NCCOC)n2c1C | 696
12 | COc1ccc(Oc2cc3c(cc2NC(=O)Nc2cccc(OC)c2)n(C)c(=O)n3C)cc1 | 920
13 | O=C(CCC(=O)Nc1noc2ccccc12)NCCc1ccc(Cl)cc1 | 816
14 | CCOCCCNC(=O)C1CCN(c2nnc3cccc(C)n23)CC1 | 593
15 | Cn1cc(C2=CCN(S(=O)(=O)c3cccc(Cl)c3)CC2)c2cccnc21 | 1060
16 | CCOC(=O)c1c(C)[nH]c(C(=O)N2CCCC(C(=O)NCCc3c[nH]c4ccccc34)C2)c1C (centres undefined) | 808
17 | CCn1ccc(C(=O)N2CCCC2c2ccccc2C)n1 (centres undefined) | 870
18 | CN1C(=O)c2cc(C(=O)NCCN3CCCCC3)nn2CC1(C)C(=O)NCc1ccccc1 (centres undefined) | 597
19 | Cc1nc(N2CCN(c3ncccn3)CC2)nc2c1C(=O)CC(c1ccc(F)cc1)C2 (centres undefined) | 1190
20 | COc1cc(OC)cc(N2C=C(C#N)S(=O)(=O)c3c(F)cccc32)c1 | 906
21 | CCn1cnc(S(=O)(=O)N2CCC(C(=O)Nc3ccc(F)cc3)CC2)c1 | 709
22 | Cc1nn(-c2ccccc2)c2c1N(CC(=O)NCCC1=CCCCC1)C(=O)CS2 | 811
23 | O=C(Cc1cccc(C(F)(F)F)c1)N1CCc2nc[nH]c2C1 | 612

Row | Compound | RP-LC retention time [s]
24 | Cc1ccc(N2CC(c3noc(-c4cccc(OC(F)(F)F)c4)n3)CC2=O)cc1 (centres undefined) | 1160
25 | CCc1ccccc1N(CC)C(=O)C1CCCN(c2ncnc3c2nc2n3CCCCC2)C1 (centres undefined) | 964
26 | CNC(=O)Nc1ccc(C2(C(=O)Nc3ccc4c(c3)CCC4)CCC2)cc1 | 844
27 | Cc1ccc(-c2nnc(Cc3nc(-c4cccc(C)c4)no3)o2)cc1 | 1110
28 | Cc1nc(C)c(C(=O)Nc2cc(Cl)ccc2C)s1 | 837
29 | CC1CCCN(C(=O)C2CCN(CCc3c[nH]c4ncccc34)CC2)C1 (centres undefined) | 586
30 | COC1CCOC2(CCN(C(=O)c3sccc3C)CC2)C1 (centres undefined) | 732
31 | O=C(NCC1(c2ccccc2)CCOCC1)c1c(F)cccc1Cl | 769
32 | CCCN1C(=O)Cc2ccccc2C1C(=O)NCCOC (centres undefined) | 641
33 | CC1(C(=O)NCc2ccccc2)CN(S(C)(=O)=O)CC(=O)N1CCCc1ccccc1 (centres undefined) | 856
34 | CC(C)NC(=O)Cn1cccc(-c2nc(-c3ccc(Br)cc3)no2)c1=O | 824
35 | O=C1OC(Nc2nc(-c3cccc(Br)c3)cs2)c2ccccc21 (centres undefined) | 862
36 | Cc1ccc(-n2ccc(=O)c(-c3nc(-c4ccc(OC(C)C)cc4)no3)n2)cc1 | 1060
37 | COc1ccc(-n2nnc(C(=O)O)c2-c2ccncc2)cc1 | 592
38 | O=C(NCCc1csc(-c2cccs2)n1)C1CCN(C(=O)c2ccc(F)c(F)c2)CC1 | 809
39 | Cc1ccc2c(Nc3ccc(Cl)c(F)c3)c(C(=O)N3CCSCC3)cnc2n1 | 651
40 | O=C(Cn1cnc2c(sc3nc(-c4ccccc4)ccc32)c1=O)Nc1ccc(Br)cc1 | 1120
41 | O=C1CCCCC(Cc2ccccc2)(C(=O)NCc2cccc(C(F)(F)F)c2)N1 (centres undefined) | 893
42 | Cc1nn(CC(=O)N2CCN(c3ccccc3)CC2)c(=O)c2nc(-c3ccccc3)sc12 | 924
43 | Cc1nc(NC(=O)c2ccc(OCc3nc(C4CC4)cs3)cc2)sc1C | 969
44 | CC(C)c1ccc(-n2nc(N3CCN(C(=O)CCC(=O)N4CCOCC4)CC3)ccc2=O)cc1 | 695
45 | Cc1ccccc1-c1noc(Cn2c(=O)n(-c3ccccc3C)c(=O)c3sccc32)n1 | 1050
46 | O=C(Nc1cccc(F)c1)C1CCCN(c2nc3ccsc3c(=O)n2Cc2ccc(F)cc2)C1 (centres undefined) | 1050

Row | Compound | RP-LC retention time [s]
47 | Cc1cccc2nnc(N3CCN(C(=O)c4ccc(F)cc4)CC3)n12 | 648
48 | COC(=O)c1ccc2c(=O)n(-c3cccc(Cl)c3)c(N3CCC(C(N)=O)CC3)nc2c1 | 781
49 | O=C1c2ccccc2C(=O)c2c(NCCNCCO)ccc(O)c21 | 634
50 | Cc1ccsc1C(=O)N1CCCC2(CC1)CN(C)C(=O)O2 (centres undefined) | 661
51 | CCOc1ccc(S(=O)(=O)N2CCc3c(c(-c4nnc(SCC)n4CC)nn3C)C2)cc1 | 961
52 | COc1ccccc1CCc1nc(-c2ccc3oc(C)nc3c2)no1 | 1210
53 | CCn1c(=O)sc2cc(S(=O)(=O)N3CCC(C(=O)Nc4ccc(F)cc4C)CC3)ccc21 | 911
54 | O=C(c1cn2cc(Cl)ccc2n1)N1CCN(c2ccccc2F)CC1 | 833
55 | COc1ccc(-c2cc(N3CCN(C(=O)Nc4ccc5c(c4)OCCO5)CC3)ncn2)cc1 | 652
56 | Cc1noc(-c2ccc(OC3CN(C(=O)c4sccc4C)C3)cc2)n1 | 900
57 | Cc1ccc(-c2noc(Cc3nnc(-c4cccc(C)c4)o3)n2)cc1 | 1130
58 | O=c1c2ccccc2c(-c2nc(-c3cccnc3)no2)cn1-c1cccc(Cl)c1 | 1130
59 | Cc1ccc(CNC(=O)Cc2nnc(-c3ccccn3)o2)cc1 | 692
60 | O=C(NC1CCCCCC1)C1CCN(S(=O)(=O)c2cc(C(=O)N3CCCCCC3)cs2)CC1 | 956
61 | CC(C)(C)c1ccc(NC(=O)CSc2ncn[nH]2)cc1 | 719
62 | COc1ccc(N2CC(c3nc(-c4ccc(C(F)(F)F)cc4)no3)CC2=O)cc1 (centres undefined) | 1040
63 | COc1ccc([N+](=O)[O-])cc1NS(=O)(=O)c1ccc(C)cc1 | 961
64 | O=C(CC1CCCCN1S(=O)(=O)c1ccc(Cl)cc1)NCc1cccnc1 (centres undefined) | 568
65 | CCc1ccccc1NC(=O)N1CCCC1c1nc(-c2cccc(OC)c2)no1 (centres undefined) | 957
66 | O=C(Nc1cnc(-c2cccc(Cl)c2)nc1)c1ccsc1 | 1030
67 | CCC1(C(=O)NCCCN2CCc3ccccc3C2)CCCCC(=O)N1 (centres undefined) | 582
68 | O=C(Cn1cnc2c(sc3nc(-c4ccccc4)ccc32)c1=O)Nc1ccc(F)cc1Cl | 1050
69 | CCC(CO)NCc1ccc(-c2ccc(F)cc2)o1 (centres undefined) | 637

Row | Compound | RP-LC retention time [s]
70 | COc1ccc(OC)c(NC(=O)CN2CC(C)Sc3ccccc32)c1 (centres undefined) | 1080
71 | Cn1c(C(=O)c2ccncc2)cc2ccccc21 | 881
72 | CC(C)CCNC(=O)N1CCN(Cc2nc3ccc(Cl)cc3o2)CC1 | 746
73 | Cc1cc(C)c(C)c(S(=O)(=O)N2CCCC2c2nc(-c3ccc(F)cc3)no2)c1C (centres undefined) | 1310
74 | Cc1ccc(CC(=O)NC2CCN(c3cc(C)cc(C)c3)C2=O)cc1 (centres undefined) | 893
75 | O=C(Cn1cnc2nc(N3CCC(C(=O)NC4CC4)CC3)sc2c1=O)NC1CCCC1 | 609
76 | COCC(=O)N(CC(=O)N1CCc2sccc2C1COc1ccc(C)cc1C)CC1CCCO1 (centres undefined) | 929
77 | Cc1nc(SCC(=O)Nc2ccc(Cl)cc2C(F)(F)F)cc(-c2ccccn2)n1 | 1080
78 | CC1(C(=O)N2CC(F)(F)C[C@H]2c2nc(-c3ccncc3)no2)CC1 | 735
79 | Cc1nc(-c2ccc(-c3noc(CNC(=O)c4ccccc4)n3)cc2)cs1 | 902
80 | CCN(CC)C(=O)c1cc2c(s1)CCC(C(=O)NCc1ccc3c(c1)OCO3)C2 (centres undefined) | 830
81 | COC(=O)c1cc(OC)c(OC)cc1NC(=O)c1ccc(CSc2ccccc2)o1 | 1070
82 | Cc1cc(-c2ccc(S(=O)(=O)N3CCC(C(=O)NCCC(C)C)CC3)o2)n[nH]1 | 783
83 | Cc1ccc(N2CC(c3noc(-c4ccc(C#N)cc4)n3)CC2=O)cc1 (centres undefined) | 947
84 | CC(C)(C)c1ccc(C(=O)N2CCN(c3nc(CN4CCOCC4)cs3)CC2)cc1 | 711
85 | CC(C)NC(=O)Cn1cccc1-c1nc(-c2ccc3c(c2)OCO3)no1 | 925
86 | O=C(Cn1ccn2nc(-c3ccccc3)c(CO)c2c1=O)N1CCc2ccccc21 | 848
87 | CC1(C)C(=O)Nc2ccc(S(=O)(=O)N3CCC(c4noc(-c5ccncc5)n4)C3)cc21 (centres undefined) | 700
88 | Cc1ccc2c(c1)cc(S(=O)(=O)c1ccccc1)c(=O)n2CC(=O)NC1CCCC1 | 903
89 | CC(=O)Nc1cccc(NC(C)=O)n1 | 609
